Experimental data published in article PMC7468108 (Communications Biology, 2020).

Legend:
hIAPP = target: T1, hIAPP (Homo sapiens, UniProt P10997); experiment: ThT-binding assay, inhibition of hIAPP aggregation; assay type: biochemical; details: for Normalized ThT fluorescence: hIAPP (10 µM) : molecule 1:5, average of three data sets; for % amyloid of hIAPP: hIAPP 10 µM
T1 construct: hIAPP is a 37-amino acid neuroendocrine peptide hormone; purchased Peptide 2.0 (USA)
T1 sequence (P10997 34-70 limits assumed): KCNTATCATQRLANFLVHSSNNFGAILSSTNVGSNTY
Description: A similar inhibitory effect by the hybrid molecules was found toward hIAPP aggregation. […] Upon co-incubation of hIAPP with the hybrid molecules, a dose-response inhibition of hIAPP fibril formation was observed (Fig. 2d, e and Supplementary Fig. 3). […] Also, for IAPP, the marginally stronger inhibitory effect of WGalNAc was statistically significant (Supplementary Fig. 2b).
The resulting thin films were dissolved in PBS (100 mM, pH 7.4) and sonicated for 5 min to get a stock concentration of 50 µM, which immediately diluted to required concentration for an experiment. Stock solutions of ThT (4 mM in PBS) and hybrid molecules (10 mM in PBS) were prepared. All the stock solutions were diluted according to the requirement.
The experiment was performed according to the previous report. […] Kinetics fluorescence data were collected at 37 °C in triplicate using Infinite M200 microplate reader (Tecan, Switzerland), with measurements acquired at 15 min intervals. Excitation and emission wavelengths were set at 440 nm and 485 nm, respectively.

[1] = test system: SH-SY5Y cells exposed to pre-formed Aβ42 fibrils; experiment: XTT assay, reduction of Aβ42-induced cytotoxicity in SH-SY5Y; assay type: cell-based, human; set-up: %Viability: dose or concentration left out as unconfirmed
Description: (§1) The peptide assemblies were then incubated for further 24 h with SH-SY5Y or HEK-293 cells and cell viability was monitored by XTT assay (Fig. 9). […] The mixtures were then independently applied to the respective cells for 24 h, and cell viability was further measured by XTT assay (Fig. 10a).
(§2) The SH-SY5Y and HEK-293 cell lines (2 × 10^5 cells/mL) were cultured in 96-well tissue microplates (100 µL/well) and allowed to adhere overnight at 37 °C. The conjugate molecules were dissolved in DMEM:nutrient mixture F12 (Ham’s) (1:1) (Biological Industries, Israel) at different concentrations. The negative control was prepared as medium without hybrid molecules and treated in the same manner. 100 µL of medium with or without hybrid molecules were added to each well in triplicate. Following incubation for 24 h at 37 °C, cell viability was evaluated using the 2,3-bis(2-methoxy-4-nitro-5-sulfophenyl)-2H-tetrazolium-5-carboxanilide (XTT) cell proliferation assay kit (Biological Industries, Israel) according to the manufacturer’s instructions. Briefly, 100 µL of activation reagent was added to 5 mL of XTT reagent, followed by the addition of 50 µL of activated-XTT solution to each well. After 2 h incubation at 37 °C, color intensity was measured using an ELISA microplate reader at 450 nm and 630 nm. Results are presented as mean and mean standard error. Each experiment was repeated minimum three times.
(§3) For the quantitative data derived from ThT and XTT assays, statistical significance, expressed as p-value, was determined using Student’s t-test calculation applied at the end of the experiments, setting tails to 2 (tailed distribution) and type to 2 (samples equal variance), according to reported methods. From the XTT viability assays, EC50 and Emax values were determined from the dose-response curves of each tested molecule using non-linear least-square data fitting, according to literature.

[2] = test system: HEK-293 cells exposed to pre-formed hIAPP fibrils; experiment: XTT assay, reduction of hIAPP-induced cytotoxicity in HEK-293; assay type: cell-based; details: Homo sapiens
Description: as §1, §2, §3

## NC(Cc1c[nH]c2ccccc12)C(=O)NC(Cc1c[nH]c2ccccc12)C(=O)O (stereo not shown) [WW]
hIAPP; Time 0 h
  Normalized ThT fluorescence: 29.978
hIAPP; Time 0.25 h
  Normalized ThT fluorescence: -2.428
hIAPP; Time 0.5 h
  Normalized ThT fluorescence: 312.254
hIAPP; Time 0.75 h
  Normalized ThT fluorescence: 629.363
hIAPP; Time 1 h
  Normalized ThT fluorescence: 980.330
hIAPP; Time 1.25 h
  Normalized ThT fluorescence: 1609.153
hIAPP; Time 1.5 h
  Normalized ThT fluorescence: 2335.279
hIAPP; Time 1.75 h
  Normalized ThT fluorescence: 2857.634
hIAPP; Time 2 h
  Normalized ThT fluorescence: 3166.885
hIAPP; Time 2.25 h
  Normalized ThT fluorescence: 3521.809
hIAPP; Time 2.5 h
  Normalized ThT fluorescence: 3762.743
hIAPP; Time 2.75 h
  Normalized ThT fluorescence: 4063.191
hIAPP; Time 3 h
  Normalized ThT fluorescence: 4256.338
hIAPP; Time 3.25 h
  Normalized ThT fluorescence: 4441.516
hIAPP; Time 3.5 h
  Normalized ThT fluorescence: 4588.861
hIAPP; Time 3.75 h
  Normalized ThT fluorescence: 4641.496
hIAPP; Time 4 h
  Normalized ThT fluorescence: 4783.902
hIAPP; Time 4.25 h
  Normalized ThT fluorescence: 5155.140
hIAPP; Time 4.5 h
  Normalized ThT fluorescence: 5083.691
hIAPP; Time 4.75 h
  Normalized ThT fluorescence: 5147.945
hIAPP; Time 5 h
  Normalized ThT fluorescence: 5383.622
hIAPP; Time 5.25 h
  Normalized ThT fluorescence: 5413.206
hIAPP; Time 5.5 h
  Normalized ThT fluorescence: 5636.242
hIAPP; Time 5.75 h
  Normalized ThT fluorescence: 5718.561
hIAPP; Time 6 h
  Normalized ThT fluorescence: 5762.151
hIAPP; Time 6.25 h
  Normalized ThT fluorescence: 5998.572
hIAPP; Time 6.5 h
  Normalized ThT fluorescence: 6267.216
hIAPP; Time 6.75 h
  Normalized ThT fluorescence: 6187.949
hIAPP; Time 7 h
  Normalized ThT fluorescence: 6251.809
hIAPP; Time 7.25 h
  Normalized ThT fluorescence: 6421.160
hIAPP; Time 7.5 h
  Normalized ThT fluorescence: 6518.393
hIAPP; Time 7.75 h
  Normalized ThT fluorescence: 6603.373
hIAPP; Time 8 h
  Normalized ThT fluorescence: 6737.364
hIAPP; Time 8.25 h
  Normalized ThT fluorescence: 6750.786
hIAPP; Time 8.5 h
  Normalized ThT fluorescence: 6792.841
hIAPP; Time 8.75 h
  Normalized ThT fluorescence: 6865.131
hIAPP; Time 9 h
  Normalized ThT fluorescence: 6824.556
hIAPP; Time 9.25 h
  Normalized ThT fluorescence: 6905.238
hIAPP; Time 9.5 h
  Normalized ThT fluorescence: 6910.878
hIAPP; Time 9.75 h
  Normalized ThT fluorescence: 6951.940
hIAPP; Time 10 h
  Normalized ThT fluorescence: 6938.219
hIAPP; Time 10.25 h
  Normalized ThT fluorescence: 6978.295
hIAPP; Time 10.5 h
  Normalized ThT fluorescence: 7036.631
hIAPP; Time 10.75 h
  Normalized ThT fluorescence: 7131.130
hIAPP; Time 11 h
  Normalized ThT fluorescence: 7205.208
hIAPP; Time 11.25 h
  Normalized ThT fluorescence: 7201.975
hIAPP; Time 11.5 h
  Normalized ThT fluorescence: 7247.388
hIAPP; Time 11.75 h
  Normalized ThT fluorescence: 7228.342
hIAPP; Time 12 h
  Normalized ThT fluorescence: 7216.738
hIAPP; Time 12.25 h
  Normalized ThT fluorescence: 7265.266
hIAPP; Time 12.5 h
  Normalized ThT fluorescence: 7198.053
hIAPP; Time 12.75 h
  Normalized ThT fluorescence: 7266.511
hIAPP; Time 13 h
  Normalized ThT fluorescence: 7230.088
hIAPP; Time 13.25 h
  Normalized ThT fluorescence: 7204.082
hIAPP; Time 13.5 h
  Normalized ThT fluorescence: 7254.393
hIAPP; Time 13.75 h
  Normalized ThT fluorescence: 7295.955
hIAPP; Time 14 h
  Normalized ThT fluorescence: 7250.976
hIAPP; Time 14.25 h
  Normalized ThT fluorescence: 7276.851
hIAPP; Time 14.5 h
  Normalized ThT fluorescence: 7406.119
hIAPP; Time 14.75 h
  Normalized ThT fluorescence: 7447.878
hIAPP; Time 15 h
  Normalized ThT fluorescence: 7365.784
hIAPP; molar ratio hIAPP:tested molecule 1:1
  % amyloid of hIAPP: 105.600%
hIAPP; molar ratio hIAPP:tested molecule 1:5
  % amyloid of hIAPP: 115.433%
hIAPP; molar ratio hIAPP:tested molecule 5:1
  % amyloid of hIAPP: 99.082%
hIAPP; molar ratios 5:1, 1:1, 1:5
  inhibition of hIAPP fibril formation (ThT), in words: No inhibitory effect
[1]; Aβ42 […] µM : compound 1:1
  %Viability: 54.466%
[1]; Aβ42 […] µM : compound 1:5
  %Viability: 57.303%
[1]; Aβ42 […] µM : compound 1:10
  %Viability: 57.999%
[1]; Aβ42 […] µM : compound 1:20
  %Viability: 59.030%
[1]; Aβ42 […] µM : compound 5:1
  %Viability: 52.403%
[1]; Aβ42 […] µM : compound 10:1
  %Viability: 48.896%
[1]; Aβ42 […] µM : compound 20:1
  %Viability: 51.423%
[1]; Aβ42 […] µM : compound 50:1
  %Viability: 50.031%
[1]; Homo sapiens, read-out: Aβ42 EC50
  EC50: 13 µM
[2]; HEK293, hIAPP (10 µM) : molecule 1:1, HEK-293 cells, normalized XTT data
  viability at 10 µM: 55.2%
[2]; HEK293, hIAPP (10 µM) : molecule 1:5, HEK-293 cells, normalized XTT data
  viability at 50 µM: 57.7%
[2]; HEK293, hIAPP (10 µM) : molecule 1:20, HEK-293 cells, normalized XTT data
  viability at 200 µM: 58.5%
[2]; HEK293, hIAPP (10 µM) : molecule 5:1, HEK-293 cells, normalized XTT data
  viability at 2 µM: 55.6%
[2]; HEK293, reduction of cytotoxicity of pre-formed hIAPP fibrils 10 µM, HEK-293
  EC50: 10 µM
